Test results from patent US20210147381A1, “1,2,3,4-SUBSTITUTED QUINOLINE COMPOUNDS AS SIP MODULATORS” (AbbVie Deutschland GmbH & Co. KG, priority 2017, published 2021).
Read-outs that look alike come from different tables or passages of the source.

How the values were obtained:
Assay type in all cases: cell-based
[1] = molecular target: T1, human S1P3 receptor (S1PR3) (Homo sapiens, UniProt Q99500); assay: Intracellular Ca2+ release (method 1), agonist potency, S1P3
T1 construct: host or cells: CHO-K1
Procedure: (§1) Agonistic activity and efficacy of compounds was assessed in recombinant cells using method 1 described below.
(§2) Agonist potency and efficacy were assessed by measurement of intracellular Ca^2+ release. Recombinant CHO-K1 cells (Euroscreen, Brussels, Belgium) expressing human S1PR5, S1PR1, S1PR3 or S1PR4 receptors, aequorin, and GTP binding protein Gq/i5 were cultured using a medium containing nutrient mixture F-12 Ham (Sigma-Aldrich) with 10% FBS, and 100 μg/mL gentamicin and equilibrated at 5% CO2.
(§3) 15,000 cells in 20 μL medium were seeded into Biocoat poly-D-Lysine coated 384 well plates (Becton Dickinson #35-6663) and grown to 95% confluency after 24 h.
(§4) Culture medium was replaced by an assay buffer consisting of HBBS with Ca^2+ and Mg^2+ (Invitrogen #14025-050), 20 mmol/L Hepes (Sigma-Aldrich #H-3375), 2.5 mmol/L probenecid (Sigma-Aldrich #P-8761, and 0.1% BSA (Sigma-Aldrich #A-7030) pH 7.4. The Calcium 5 no-wash FLIPR assay kit (Molecular Devices #5000625) was performed as described in the kit instructions. Cells were incubated with Calcium 5 dye for 1 h at 37° C., 5% CO2 in the dark. After 45 min adaptation to RT assessment of agonist stimulation of intracellular Ca^2+ release was performed by addition of test compounds at various concentrations obtained by serial dilution. Phospho-fingolimod was used as positive control and reference agonist (intrinsic activity 100%).
(§5) Agonism of test compounds at the human S1Px receptors were characterized by the EC50 values (potencies) deduced from a nonlinear 4 parametric logistic curve fit to the measured fluorescence data after normalization to the lower and upper plateaus of the fitted reference agonist's (phospho-fingolimod)effect curve and by their efficacy (Emax) values represented by their maximum achievable effects in % of the reference agonist's efficacy, which is defined as an Emax of 100%.

[2] = molecular target: T2, human S1P1 receptor (S1PR1) (Homo sapiens, UniProt P21453); assay: Intracellular Ca2+ release (method 1), agonist potency, S1P1; conditions: CHO-K1 cells expressing human S1PR1
T2 construct: host or cells: CHO-K1
Procedure: as §1, §2, §3, §4, §5

[3] = molecular target: T3, human S1P5 receptor (S1PR5) (Homo sapiens, UniProt Q9H228); assay: Intracellular Ca2+ release (method 1), agonist potency and efficacy, S1P5; conditions: for Emax: read-out: hS1P5 EMax
T3 construct: host or cells: CHO-K1
Procedure: as §1, §2, §3, §4, §5

[4] = molecular target: T4, human S1P4 receptor (S1PR4) (Homo sapiens, UniProt O95977); assay: Intracellular Ca2+ release (method 1), agonist potency, S1P4; conditions: CHO-K1 cells expressing human S1PR4
T4 construct: host or cells: CHO-K1
T4 sequence (O95977 1-384): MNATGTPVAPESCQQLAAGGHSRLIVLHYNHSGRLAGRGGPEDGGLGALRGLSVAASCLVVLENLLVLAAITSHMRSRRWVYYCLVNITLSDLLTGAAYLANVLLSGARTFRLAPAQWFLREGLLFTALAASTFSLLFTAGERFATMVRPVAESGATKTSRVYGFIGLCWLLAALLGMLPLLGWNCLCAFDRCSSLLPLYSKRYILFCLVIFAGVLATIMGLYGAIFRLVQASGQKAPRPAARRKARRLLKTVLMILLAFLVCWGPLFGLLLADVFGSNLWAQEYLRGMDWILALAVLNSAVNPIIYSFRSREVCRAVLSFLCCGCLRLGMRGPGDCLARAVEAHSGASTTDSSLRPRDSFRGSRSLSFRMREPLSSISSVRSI
Procedure: as §1, §2, §3, §4, §5

[5] = CHO-K1 cells expressing human S1PR3
[6] = maximum effect in % of reference agonist phospho-fingolimod (100%)
[7] = recombinant CHO-K1 cells expressing human S1PR5, aequorin, Gq/i5, Ca2+ release, read-out: S1P5 EC50 range
[8] = text value for reference compounds lacking the spiro-linked group, read-out: S1P5 EC50
[9] = value for reference compounds, % of phospho-fingolimod efficacy

T3 sequence (Q9H228 whole entry): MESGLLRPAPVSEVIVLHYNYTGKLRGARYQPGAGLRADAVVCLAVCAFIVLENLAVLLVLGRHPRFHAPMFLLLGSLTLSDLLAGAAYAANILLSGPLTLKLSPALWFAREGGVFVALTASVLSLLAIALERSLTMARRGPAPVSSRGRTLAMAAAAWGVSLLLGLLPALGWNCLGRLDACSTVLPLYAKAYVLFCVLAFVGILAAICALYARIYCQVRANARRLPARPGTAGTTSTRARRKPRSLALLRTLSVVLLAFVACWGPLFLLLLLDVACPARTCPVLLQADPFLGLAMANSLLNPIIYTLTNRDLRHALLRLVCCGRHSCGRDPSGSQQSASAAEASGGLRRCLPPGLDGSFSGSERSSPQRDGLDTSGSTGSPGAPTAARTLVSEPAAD
T1 sequence (Q99500 whole entry): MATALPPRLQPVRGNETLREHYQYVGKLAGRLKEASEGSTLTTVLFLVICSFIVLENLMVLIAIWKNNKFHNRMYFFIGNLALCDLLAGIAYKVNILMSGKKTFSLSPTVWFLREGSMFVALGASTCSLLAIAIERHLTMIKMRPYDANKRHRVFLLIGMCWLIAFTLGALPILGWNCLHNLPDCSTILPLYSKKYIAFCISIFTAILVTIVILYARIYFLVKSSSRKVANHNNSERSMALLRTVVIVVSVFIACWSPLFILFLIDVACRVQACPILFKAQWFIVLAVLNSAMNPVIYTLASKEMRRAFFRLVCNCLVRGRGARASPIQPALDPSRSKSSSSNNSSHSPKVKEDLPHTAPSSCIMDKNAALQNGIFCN
T2 sequence (P21453 whole entry): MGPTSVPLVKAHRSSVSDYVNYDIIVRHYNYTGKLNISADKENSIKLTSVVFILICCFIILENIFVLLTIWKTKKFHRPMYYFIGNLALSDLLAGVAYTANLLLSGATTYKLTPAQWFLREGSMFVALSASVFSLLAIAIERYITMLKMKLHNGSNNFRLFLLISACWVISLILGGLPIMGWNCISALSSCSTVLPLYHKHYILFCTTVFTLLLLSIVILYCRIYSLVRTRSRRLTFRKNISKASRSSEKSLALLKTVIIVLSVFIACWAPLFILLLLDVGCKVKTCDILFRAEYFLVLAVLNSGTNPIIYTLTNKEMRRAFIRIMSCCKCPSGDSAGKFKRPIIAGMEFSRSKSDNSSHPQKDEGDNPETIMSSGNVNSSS

Row | Compound | EC50 [1, 5] | EC50 [2] | Emax [3, 6] | EC50 [3, 7] | EC50 ([4]; cells given as bound) | EC50 ([2]; cells given as bound) | EC50 [4] | EC50 ([1]; value for reference compounds) | EC50 [3, 8] | Emax [3, 9]
1 | CC(C)c1ccc(C#Cc2ccc3c(c2)C2(CC2)CN(CCCC(=O)O)C3)cc1 [Compound 1, 2′-(3-carboxypropyl)-6′-((4-isopropylphenyl)ethynyl)-2′,3′-dihydro-1′H-spiro[cyclopropane-1,4′-isoquinolin]-2′-ium 2,2,2-trifluoroacetate] | > 1 µM | 0.1 to 1 µM | 50 to 100% | < 0.01 µM | > 1 µM |  |  |  |  | 
2 | CC(C)Oc1ccc(C#Cc2ccc3c(c2)C2(CC2)CN(CCCC(=O)O)C3)cn1 [Compound 2, 4-(6′-((6-isopropoxypyridin-3-yl)ethynyl)-1′H-spiro[cyclopropane-1,4′-isoquinolin]-2′(3′H)-yl)butanoic acid] | > 1 µM |  | 50 to 100% | < 0.01 µM | > 1 µM | > 1 µM |  |  |  | 
3 | CCOc1ccc(C#Cc2ccc3c(c2)C2(CC2)CN(CCCC(=O)O)C3)cc1 [Compound 3, 2′-(3-carboxypropyl)-6′-((4-ethoxyphenyl)ethynyl)-2′,3′-dihydro-1′H-spiro[cyclopropane-1,4′-isoquinolin]-2′-ium 2,2,2-trifluoroacetate] | > 1 µM | 0.1 to 1 µM | 50 to 100% | < 0.01 µM | > 1 µM |  |  |  |  | 
4 | O=C(O)CCN1Cc2ccc(C#Cc3cccc(F)c3F)cc2C2(CC2)C1 [Compound 10, 3-(6′-((2,3-Difluorophenyl)ethynyl)-1′H-spiro[cyclopropane-1,4′-isoquinolin]-2′(3′H)-yl)propanoic acid] | > 1 µM |  | > 100% | < 0.01 µM |  | > 1 µM | 0.01 to 0.1 µM |  |  | 
5 | O=C(O)CCN1Cc2ccc(C#Cc3c(Cl)cccc3Cl)cc2C2(CC2)C1 [Compound 11, 3-(6′-((2,6-dichlorophenyl)ethynyl)-1′H-spiro[cyclopropane-1,4′-isoquinolin]-2′(3′H)-yl)propanoic acid] | > 1 µM |  | 50 to 100% | < 0.01 µM |  | > 1 µM | 0.01 to 0.1 µM |  |  | 
6 | CC(CC(=O)O)CN1Cc2ccc(C#Cc3ccc(OC(F)(F)F)c(F)c3)cc2C2(CC2)C1 (centres unmarked) [Compound 61, 4-(6′-((3-fluoro-4-(trifluoromethoxy)phenyl)ethynyl)-1′H-spiro[cyclopropane-1,4′-isoquinolin]-2′(3′H)-yl)-3-methylbutanoic acid] |  |  | 50 to 100% | < 0.01 µM | > 1 µM | > 1 µM |  |  |  | 
7 | CC(CC(=O)O)CN1Cc2ccc(C#Cc3ccc(OC(C)C)cc3)cc2C2(CC2)C1 (centres unmarked) [Compound 62, 4-(6′-((4-isopropoxyphenyl)ethynyl)-1′H-spiro[cyclopropane-1,4′-isoquinolin]-2′(3′H)-yl)-3-methylbutanoic acid] |  |  | > 100% | < 0.01 µM | > 1 µM | > 1 µM |  |  |  | 
8 | CCOc1ccc(C#Cc2ccc3c(c2)C2(CC2)CN(CC(C)CC(=O)O)C3)cc1 (centres unmarked) [Compound 63, 4-(6′-((4-ethoxyphenyl)ethynyl)-1′H-spiro[cyclopropane-1,4′-isoquinolin]-2′(3′H)-yl)-3-methylbutanoic acid] |  |  | 50 to 100% | 0.01 to 0.1 µM | > 1 µM | > 1 µM |  |  |  | 
9 | CC(CC(=O)O)CN1Cc2ccc(C#Cc3ccc(OC4CCCC4)cc3)cc2C2(CC2)C1 (centres unmarked) [Compound 64, 4-(6′-((4-(cyclopentyloxy)phenyl)ethynyl)-1′H-spiro[cyclopropane-1,4′-isoquinolin]-2′(3′H)-yl)-3-methylbutanoic acid] |  |  | > 100% | 0.01 to 0.1 µM | > 1 µM | > 1 µM |  |  |  | 
10 | CC(CC(=O)O)CN1Cc2ccc(C#Cc3ccc(OC(F)(F)F)cc3)cc2C2(CC2)C1 (centres unmarked) [Compound 65, 3-methyl-4-(6′-((4-(trifluoromethoxy)phenyl)ethynyl)-1′H-spiro[cyclopropane-1,4′-isoquinolin]-2′(3′H)-yl)butanoic acid] |  |  | > 100% | 0.1 to 1 µM | > 1 µM | > 1 µM |  |  |  | 
11 | CC(CC(=O)O)CN1Cc2ccc(C#Cc3cccc(F)c3F)cc2C2(CC2)C1 (centres unmarked) [Compound 66, 4-(6′-((2,3-difluorophenyl)ethynyl)-1′H-spiro[cyclopropane-1,4′-isoquinolin]-2′(3′H)-yl)-3-methylbutanoic acid] |  |  | 50 to 100% | 0.1 to 1 µM | > 1 µM | > 1 µM |  |  |  | 
12 | CCOc1cc(C)c(C#Cc2ccc3c(c2)C2(CC2)CN(CC(C)CC(=O)O)C3)cn1 (centres unmarked) [Compound 67, 4-(6′-((6-ethoxy-4-methylpyridin-3-yl)ethynyl)-1′H-spiro[cyclopropane-1,4′-isoquinolin]-2′(3′H)-yl)-3-methylbutanoic acid] |  |  | 50 to 100% | 0.01 to 0.1 µM | > 1 µM | > 1 µM |  |  |  | 
13 | CC(CC(=O)O)CN1Cc2ccc(C#Cc3ccsc3)cc2C2(CC2)C1 (centres unmarked) [Compound 68, 3-methyl-4-(6′-(thiophen-3-ylethynyl)-1′H-spiro[cyclopropane-1,4′-isoquinolin]-2′(3′H)-yl)butanoic acid] |  |  | 50 to 100% | 0.01 to 0.1 µM | > 1 µM | > 1 µM |  |  |  | 
14 | CCOc1ccc(C#Cc2ccc3c(c2)C2(CC2)CN(CC(C)CC(=O)O)C3)cc1F (centres unmarked) [Compound 69, 4-(6′-((4-ethoxy-3-fluorophenyl)ethynyl)-1′H-spiro[cyclopropane-1,4′-isoquinolin]-2′(3′H)-yl)-3-methylbutanoic acid] |  |  | > 100% | 0.01 to 0.1 µM | > 1 µM | > 1 µM |  |  |  | 
15 | CC(C)Oc1ccc(C#Cc2ccc3c(c2)C2(CC2)CN(C2CC(C(=O)O)C2)C3)nc1 (centres unmarked) [Compound 70, 3-(6′-((5-isopropoxypyridin-2-yl)ethynyl)-1′H-spiro[cyclopropane-1,4′-isoquinolin]-2′(3′H)-yl)cyclobutanecarboxylic acid] |  |  | 50 to 100% | 0.01 to 0.1 µM | > 1 µM | > 1 µM |  |  |  | 
16 | O=C(O)C1CC(N2Cc3ccc(C#Cc4ccc(OC(F)(F)F)c(F)c4)cc3C3(CC3)C2)C1 (centres unmarked) [Compound 71, 3-(6′-((3-fluoro-4-(trifluoromethoxy)phenyl)ethynyl)-1′H-spiro[cyclopropane-1,4′-isoquinolin]-2′(3′H)-yl)cyclobutanecarboxylic acid] |  |  | 50 to 100% | 0.01 to 0.1 µM | > 1 µM | > 1 µM |  |  |  | 
17 | CCOc1ccc(C#Cc2ccc3c(c2)C2(CC2)CN(C2CC(C(=O)O)C2)C3)cc1F (centres unmarked) [Compound 72, 3-(6′-((4-ethoxy-3-fluorophenyl)ethynyl)-1′H-spiro[cyclopropane-1,4′-isoquinolin]-2′(3′H)-yl)cyclobutanecarboxylic acid] |  |  | 50 to 100% | 0.01 to 0.1 µM | > 1 µM | > 1 µM |  |  |  | 
18 | CCOc1ccc(C#Cc2ccc3c(c2)C2(CC2)CN(C2CC(C(=O)O)C2)C3)nc1 (centres unmarked) [Compound 73, 3-(6′-((5-ethoxypyridin-2-yl)ethynyl)-1′H-spiro[cyclopropane-1,4′-isoquinolin]-2′(3′H)-yl)cyclobutanecarboxylic acid] |  |  | 50 to 100% | 1 to 10 µM | > 1 µM | > 1 µM |  |  |  | 
19 | O=C(O)CCN1CCc2cc(C#Cc3cccc(F)c3F)ccc2C1 [Reference compound 1, 3-(6-((2,3-difluorophenyl)ethynyl)-3,4-dihydroisoquinolin-2(1H)-yl)propanoic acid, reference compound] |  |  |  |  |  |  |  | > 1 µM | 0.029 µM | 60%
20 | O=C(O)CCN1CCc2cc(C#Cc3c(Cl)cccc3Cl)ccc2C1 [Reference compound 2, 3-(6-((2,6-dichlorophenyl)ethynyl)-3,4-dihydroisoquinolin-2 (1H)-yl)propanoic acid, reference compound] |  |  |  |  |  |  |  | > 1 µM | 0.0192 µM | 41%
